According to the NIST ThermoML archive (doi:10.1021/je401118k):
Numbers after ± are expanded uncertainties.

Assay: mn = molality of the nth substance listed, in mol/kg
Conditions: for surface tension liquid-gas: Ring tensiometer; for electrical conductivity: 101 kPa, Liquid, Alternating current cell with electrodes

CC(=O)[O-].C[N+]1(CCC[Si](O[Si](C)(C)C)(O[Si](C)(C)C)O[Si](C)(C)C)CCCC1 + O
298.15 K
Conditions | surface tension liquid-gas [mN/m]
m1 = 1e-06 | 70.5 ± 0.9
m1 = 1e-05 | 58.2 ± 0.8
m1 = 0.0001 | 47.1 ± 0.6
m1 = 0.0002 | 42.4 ± 0.6
m1 = 0.0004 | 36.9 ± 0.5
m1 = 0.0006 | 32.1 ± 0.5
m1 = 0.0008 | 29.7 ± 0.4
m1 = 0.001 | 27.8 ± 0.4
m1 = 0.002 | 23.5 ± 0.4
m1 = 0.003 | 21.5 ± 0.4
m1 = 0.004 | 20.2 ± 0.4
m1 = 0.005 | 20 ± 0.4
m1 = 0.006 | 20 ± 0.4
m1 = 0.007 | 20 ± 0.4
m1 = 0.008 | 20 ± 0.4
m1 = 0.009 | 20 ± 0.4

C[N+]1(CCC[Si](O[Si](C)(C)C)(O[Si](C)(C)C)O[Si](C)(C)C)CCCC1.O=[N+]([O-])[O-] + O
Conditions | electrical conductivity, 288.15 K [S/m] | electrical conductivity, 293.15 K [S/m] | electrical conductivity, 298.15 K [S/m] | electrical conductivity, 303.15 K [S/m] | electrical conductivity, 308.15 K [S/m] | surface tension liquid-gas, 298.15 K [mN/m]
m1 = 1e-06 | – | – | – | – | – | 71.3 ± 1.2
m1 = 1e-05 | – | – | – | – | – | 67.8 ± 1.1
m1 = 0.0001 | – | – | – | – | – | 54.3 ± 0.9
m1 = 0.0006 | – | – | – | – | – | 42 ± 0.7
m1 = 0.0008 | 0.00614 ± 1e-05 | 0.00666 ± 1e-05 | 0.00734 ± 1e-05 | 0.00801 ± 1e-05 | 0.00864 ± 1e-05 | –
m1 = 0.0009 | 0.00682 ± 1e-05 | 0.00744 ± 1e-05 | 0.00818 ± 1e-05 | 0.00894 ± 1e-05 | 0.00984 ± 1e-05 | –
m1 = 0.001 | 0.00733 ± 1e-05 | 0.0081 ± 0.0001 | 0.00888 ± 1e-05 | 0.00967 ± 1e-05 | 0.01058 ± 1e-05 | 37.4 ± 0.7
m1 = 0.002 | 0.0143 ± 0.0001 | 0.01556 ± 1e-05 | 0.01717 ± 1e-05 | 0.01881 ± 1e-05 | 0.0212 ± 0.0001 | 33.3 ± 0.6
m1 = 0.003 | 0.0209 ± 0.0001 | 0.0231 ± 0.0001 | 0.0255 ± 0.0001 | 0.0279 ± 0.0001 | 0.0302 ± 0.0001 | 30.3 ± 0.6
m1 = 0.004 | 0.0264 ± 0.0001 | 0.0291 ± 0.0001 | 0.0321 ± 0.0001 | 0.0354 ± 0.0001 | 0.0388 ± 0.0001 | 27.6 ± 0.5
m1 = 0.005 | 0.0282 ± 0.0001 | 0.031 ± 0.0001 | 0.0348 ± 0.0001 | 0.0392 ± 0.0001 | 0.0438 ± 0.0001 | 26.1 ± 0.5
m1 = 0.006 | 0.03 ± 0.0001 | 0.0329 ± 0.0001 | 0.0367 ± 0.0001 | 0.0414 ± 0.0001 | 0.0466 ± 0.0001 | 25.1 ± 0.5
m1 = 0.007 | 0.0312 ± 0.0001 | 0.0343 ± 0.0001 | 0.0382 ± 0.0001 | 0.043 ± 0.0001 | 0.0486 ± 0.0001 | 24 ± 0.5
m1 = 0.008 | 0.0324 ± 0.0001 | 0.0354 ± 0.0001 | 0.0396 ± 0.0001 | 0.0447 ± 0.0001 | 0.0502 ± 0.0001 | 23.3 ± 0.5
m1 = 0.009 | 0.0335 ± 0.0001 | 0.0369 ± 0.0001 | 0.041 ± 0.0001 | 0.0464 ± 0.0001 | 0.0525 ± 0.0001 | 23 ± 0.4
m1 = 0.01 | – | – | – | – | – | 22.4 ± 0.4
m1 = 0.015 | – | – | – | – | – | 21.4 ± 0.4
m1 = 0.02 | – | – | – | – | – | 21.2 ± 0.4
m1 = 0.025 | – | – | – | – | – | 21.3 ± 0.4
m1 = 0.03 | – | – | – | – | – | 21.2 ± 0.4
